Source: patent US6458758B1, “Compositions and methods utilizing nitroxides in combination with biocompatible macromolecules” (Synzyme Technologies, Inc., priority 1993, dated 2002)
Read-outs that look alike come from different tables or passages of the source.

Legend:
[1] = system: leukocyte rolling and adhesion to endothelial cells; test: Cigarette smoke induced leukocyte rolling, adhesion and aggregate formation, dorsal skinfold chamber; format: in vivo, Syrian Golden hamsters
Excerpt: The interactions of leukocytes with endothelial cells and platelets are an indicator of the microcirculatory response to several adverse physiological conditions, ranging from localized and systemic ischemia/reperfusion injury, rejection of organ grafts, and the response to the organism to various oxidizing novae. See also Lehr et al., PNAS, […]. The mediator role of reactive oxygen species has been documented in many in vitro and in vivo models and, as a consequence, antioxidants and radical scavengers have been applied to counteract leukocyte activation, aggregation, and adhesion to endothelium and the subsequent microcirculatory dysfunction.

[2] = Superoxide oxidase / dismutase activity of nitroxide-labelled hemoglobin on storage (ESR); format: biochemical
Excerpt: For example, an o-raffinose polymerized hemoglobin solution that has been labelled with 4-amino-TEMPO is stored in its oxygenated state in a sealed glass container (FIG. 1A). In such a state, the rate of superoxide anion and met-hemoglobin formation in solution is sufficiently rapid that the conversion of the nitroxide to its hydroxylamine derivatives may be conveniently monitored (See Equation [4] and compare FIGS. 1A and 1B). Equation 4 represents that the conversion of nitroxide to its diamagnetic hydroxyl derivative is coupled to the conversion of the superoxide anion back to molecular oxygen. […] (FIG. 1B). The nitroxide is considered to have performed a “superoxide oxidase”-like activity when it is converted to its hydroxylamine derivative in the presence of hemoglobin.
Knowing that under the experimental conditions described in FIGS. 1A and 1B the nitroxide is fully converted to hydroxylamine (See Equation [4]), the nitroxide may be regenerated by simply providing more superoxide anion as shown in Equation 5. […] This observation is consistent with the reconversion of the hydroxylamine derivative to nitroxide coupled with the formation of hydrogen peroxide from superoxide anion.

[3] = In vivo ESR of mouse tail after iv nitroxide-labelled HBOC plus ^15ND17-TEMPOL; conditions: 0.5 ml iv via cannula
Experimental: FIG. 7A is the ESR spectrum of the nitroxide signal recorded from the mouse tail approximately 10 minutes after intravenous infusion of 0.5 ml of the sample shown in FIG. 6. FIG. 7B is the time dependent (scan time 30 minutes) decrease in the center peak (Mo) signal intensity of FIG. 7A recorded at 10 times of the instrument sensitivity. FIG. 7C is a continuation of FIG. 7B at the end of its scan.
FIG. 8A is a series of 5 ESR spectrum recorded at 0.5 minute intervals, the magnetic field strength was increased by 2 Gauss in between each scan to display the decrease in signal intensity as a function of time. […]
The separation of the resonance peaks permits the simultaneous monitoring of free radical or enzyme mimic activities involving the small molecular weight nitroxide (TEMPOL) and its macromolecular conjugate in both in vitro and in vivo (murine) reactions. […] First, the approximate plasma half-life of a small molecular weight nitroxide (^15ND17-TEMPOL see FIG. 4C) and a large molecular weight 4-(2-bromoacetamido)-TEMPOL-labelled HBOC (see FIG. 4B) are determined by preparing a mixture of the two and adjusting the ESR signal intensity to be approximately the same (see FIG. 6). […] The mouse tail was inserted into an ESR cavity and the spectrum was recorded within 10 minutes after injection (see FIG. 7A). […]

mice = conditions: cited from earlier work
[4] = system: Chinese Hamster V79 cells; test: Radioprotection of Chinese Hamster V79 cells at 12 Gray; format: cell-based; conditions: 12 Gray x-ray; cells pretreated 10 minutes prior to irradiation
[5] = In vivo EPR of mouse skin: intradermal PNA and intravenous ^15N-TPL
Experimental: Thirty minutes later the spectrum in (C) was recorded.
The intensity of the low field ^15N-TPL peak is plotted against time. […].
FIGS. 42A and 42B show the pharmacokinetics of intravenous ^15N-TPL (1% v/w) measured at a patch of skin on the abdomen of the mouse.
A custom-built bridged loop-gap surface resonator, absorption microwave bridge was used for in vivo EPR spectroscopy at 1.25 GHz (L-band) in the mouse. […] The anesthetized mouse was placed in a ‘sandwich’ of two templates which allowed it to be placed on the loop-gap surface resonator, absorption microwave bridge in either the supine position, for spectroscopy of the back of the head, or in the prone position for spectroscopy of the abdomen. A tail vein cannula was used for intravenous injection of ^15N-TEMPOL; this injection site was remote from the resonator.
The spectrum was made 1 minute after ^15N-TPL was injected via the tail vein. […] FIG. 40B was recorded at approximately ⅕ of the instrument gain used in FIG. 40A in order to accommodate the ^15N-TPL signal.

[6] = Plasma levels of TPL with or without PNA in C57 mice (EPR); conditions: TPL 275 mg/kg ip alone
[7] = Rat plasma TPL after intravenous injection (EPR spin density); format: in vivo; conditions: 100 mM solution, 10% v/v top load
Experimental: FIG. 14 is a plot showing time dependence of rat plasma concentrations of TPL after intravenous injections. Plasma samples were obtained from rats described in FIG. 13. TPL concentrations were determined from EPR spin density measurements.

in vivo = conditions: iv
C57 mice = test: 30-day survival of C57 mice after 10 Gray irradiation; format: in vivo; conditions: TPL 200 mg/kg ip, PNA 0.5 ml/mouse iv where given, 10 mice per group
[8] = EPR signal of ^15N-TEMPOL in isolated ischemic rat heart; conditions: 2 mM TPL
Experimental: The solid lines are double-exponential fittings to the observed intensity data. The half-lives are 0.4 minutes, 2.9 minutes (▪), and 3.3 minutes, 30.1 minutes (●) respectively.
Using methods essentially as described in Kuppusamy et al. Proc. Natl. Act. Sci., USA Vol. 91, pgs.
In an EPR imaging study, the rat heart was perfused with a solution containing nitroxide with or without polynitroxide albumin, followed by cessation of perfusate flow in order to create ischemia. […] It can be seen the signal intensity undergoes a biphasic decay and that the presence of polynitroxide albumin greatly slows the decay. By thus stabilizing the TEMPOL signal, polynitroxide albumin allows high-quality EPR images to be obtained over a prolonged period of time. Referring to FIGS. 22-23, a three-dimensional EPR image of the ischemic heart can still be obtained after 156 minutes of global ischemia. […] This illustrates that the presence of PNA allows much better imaging than is possible with TEMPOL alone, in terms both of resolution and signal persistence.
In FIG. 24, the intensity of the EPR signal is shown as a function of the duration of ischemia. In the lower curve, 2 mM of TEMPOL is infused into an ischemic heart. The upper curve traces the original intensity of 2 mM TEMPOL together with a polynitroxide albumin (4 g/dl of albumin at 42 moles of TEMPOL per mole of albumin). […]

conscious rats = test: Mean arterial pressure response in conscious rats
Excerpt: The rats were allowed to recover from surgery and anesthesia for approximately 7 days prior to study.
The rats were allowed to recover from surgery and anesthesia for approximately seven days prior to study.

C3H mice = conditions: cited from earlier work

Hemoglobin-based oxygen carrier (HBOC), DBBF-Hb: purified hemoglobin cross-linked with bis(3,5 dibromosalicyl)fumarate
aggregate formation ([1]; 15 MINUTES): 3.0 ± 1.7 /30 sec
arteriolar sticking ([1]; 15 MINUTES): 31.9 ± 26.4 /mm^2
venular rolling ([1]; 15 MINUTES): 7.9 ± 2.8%
venular sticking ([1]; 15 MINUTES): 66.0 ± 43.2 /mm^2
aggregate formation ([1]; 60 MINUTES): 4.5 ± 2.6 /30 sec
arteriolar rolling ([1]; 60 MINUTES): 3.8 ± 2.9 /mm
arteriolar sticking ([1]; 60 MINUTES): 42.0 ± 32.1 /mm^2
venular rolling ([1]; 60 MINUTES): 9.2 ± 3.8%
venular sticking ([1]; 60 MINUTES): 101.5 ± 76.9 /mm^2
aggregate formation ([1]; BASELINE): 0.3 ± 0.5 /30 sec
arteriolar rolling ([1]; BASELINE): 0.3 /mm
arteriolar sticking ([1]; BASELINE): 0.0 /mm^2
venular rolling ([1]; BASELINE): 5.8 ± 1.2%
venular sticking ([1]; BASELINE): 0.0 ± 0.0 /mm^2
leukocyte activation ([1]; cigarette smoke, compared with saline-treated controls): no effect

4-amino-TEMPO labelled o-raffinose polymerized hemoglobin: o-raffinose polymerized hemoglobin labelled with 4-amino-TEMPO
nitroxide signal after storage of sample diluted with equal volume of unlabelled hemoglobin ([2]; 30 days of cold storage at 4° C.): partially regenerated
ESR resonance peaks after storage (conversion of nitroxide to hydroxylamine) ([2]; oxygenated, sealed glass container, 30 days at 4° C.): complete disappearance of the resonance peaks

[2H]C([2H])([2H])C1(C([2H])([2H])[2H])[15N]([O])C(C([2H])([2H])[2H])(C([2H])([2H])[2H])C([2H])([2H])C([2H])(O)C1([2H])[2H] [^15ND17-TEMPOL]
time to disappearance of ESR signal after injection [3]: ≤ 2.5 min

CC1(C)CCCC(C)(C)N1[O] [TEMPO, 2,2,6,6 tetramethylpiperidine-1-oxyl]
LD50 (mice; mice, intraperitoneal): 341 mg/kg
maximum tolerated intraperitoneal dose (mice; mice): 275 mg/kg

CC1(C)CC(O)CC(C)(C)N1O [TPH]
surviving fraction of V79 cells [4]: 2%

CC1(C)CC(O)CC(C)(C)[15N]1[O] [^15N-TPL]
local half-life in skin ([5]; abdomen skin, absence of intradermal PNA): 0.5 min
time the increased ^15N-TPL signal was maintained ([5]; abdomen skin, after intradermal injection of 100 μl PNA): at least 30 minutes
decay of ^15N-TPL to ^15N-TPH ([5]; absence of intradermal PNA): complete
time to maximum ^15N-TPL signal after tail vein injection ([5]; measured at site of intradermal PNA injection on the back): less than 2 minutes
residual steady-state level as share of the initial ^15N-TPL concentration ([5]; site of intradermal PNA injection, assuming complete distribution in total body water): 17%
time the ^15N-TPL signal remained stable ([5]; skin on the back, in the presence of intradermal PNA): at least 30 minutes
plasma half-life (reduction to TPH) (mouse, 0.5 ml of 40 mM iv, no PNA): 2 min

CC1(C)CC(O)CC(C)(C)N1[O] [TPL, 4-hydroxy-2,2,6,6-tetramethylpiperidine-1-oxyl]
maximum plasma level of TPL relative to ~100 mg/kg ip in the presence of PNA [6]: approximately one-fifth
maximal tolerated dose administered intraperitoneally (mice; C3H mice): 275 mg/kg
half-life [7]: < 1 min
half-life (in vivo; C57, mouse): ~0.833 min
half-life (in vivo; mouse): ~2 min
30-day survival (C57 mice): 10%
half-life at 2 mM ([8]; read-out: half-life of EPR signal, first phase of double-exponential fit): 0.4 min
half-life at 2 mM ([8]; read-out: half-life of EPR signal, second phase of double-exponential fit): 2.9 min
time to maximum peak intensity in mouse tail (repeat iv injection of TEMPOL): approximately 10 seconds
vasodilatory effect (conscious rats; 10% v/v top load, PNA 5 g/dl, TPL 100 mM): no significant vasodilatory effect
antihypertensive effect when injected alone with HBOC (conscious rats; conscious rats): no antihypertensive effect
maximal TPL levels in whole blood (C3H mice; 275 mg/kg ip, 5-10 minutes after injection): ~150 µg/mL
dose of radiation at which 50% of treated mice die within 30 days (C3H mice; TPL 275 mg/kg ip 5-10 minutes before whole body radiation): 9.97 Gray
